Measurements as given in patent publication US12110527B2, “Production of symmetrical bolaform sophorosides” (priority 2018, dated 2024).

Test system: S. bombicola Δcyp52M1Δfao1 strain
Assay: Shake flask cultivation fed with different primary fatty alcohols: follow-up of growth (CFU) and glucose consumption
Assay type: cell-based, Starmerella bombicola
Conditions: for glucose consumption rate: alcohol fed at 1.8 (w/v) % after 48 h of cultivation, shake flask
Experimental: Production experiments using S. bombicola were performed using the production medium described by Lang et al. (2000). For shake flask experiments, 5 ml tube cultures were set up 24 h (30° C.), before transferring to shake flasks (4% inoculation). Production experiments were executed with feeding of fatty alcohols: oleyl alcohol, stearyl alcohol, lauryl alcohol, myristyl alcohol or cetyl alcohol which were added after 48 h of cultivation. The Δcyp52M1Δfao1 strain was also assessed without addition of the hydrophobic alcohol. For every production experiment, cultivation was stopped when glucose was depleted from the medium. Experiments were performed in duplicate, and average values with standard deviations are presented.
Optical density (OD) of cultures was measured at 600 nm using the Jasco V 630 Bio spectrophotometer (Jasco Europe) of 1 mL samples diluted with physiological solution (9 g/L NaCl). The viability of yeast cells in cultivation experiments was assessed by determining colony forming units (CFUs) which were expressed as the average logarithm of CFUs per culture volume as log (CFU/mL) (Saerens et al., 2011). Alternatively, Cell Dry Weight (CDW) was determined by centrifuging 1 mL fermentation samples at 14000 rpm for 5 min in tared Eppendorf tubes, and subsequently washing the cell pellets twice with 1 mL physiological solution. The remaining cell pellet was put into a 70° C. oven for 5 days and then weighed afterwards. The CDW (g/L) was calculated after subtraction of the empty weight of the Eppendorf tube.
Glucose concentrations were determined using the 2700 Select Biochemistry Analyser (YSI Inc.) or using Ultra Performance Liquid Chromatography (Waters Acquity H-Class UPLC), coupled with an Evaporative Light Scattering Detector (Waters Acquity ELSD Detector) (UPLC-ELSD). For the UPLC analysis, an Acquity UPLC BEH Amide column (130 Å, 1.7 μm, 2.1×100 mm) (Waters) was used at 35° C. and an isocratic flow rate of 0.5 mL/min of 75% acetonitrile and 0.2% triethylamine (TEA) was applied (5 min/sample). For the ELS detection, the nebulizer was cooled to 15° C. and the drift tube was kept at a temperature of 50° C. […] To express glucose consumption, a linear curve was fitted through the obtained glucose concentrations by UPLC-ELSD, and the respective slope was taken and denoted as the glucose consumption rate (g/L·h).
When two different groups were compared, the Welch's test was performed with a 95% confidence level using GraphPad Prism 7.04 software. For multiple group comparisons, analysis of variance (ANOVA) with Bonferroni's multiple comparison test correction with a 95% confidence level using GraphPad Prism 7.04 software was employed. For parameters pH, CFU, OD and glucose consumption, average values were taken when the yeast cells attained their stationary phase (after 48 h of cultivation). In general, data represented in graphs are the average and standard deviation of two experimental replicates (unless stated otherwise).
Unexpectedly, no successful uniform production of either bola SSs or alkyl SSs was obtained for the Δcyp52M1Δfao1 strain when feeding with oleyl alcohol. Instead, mixtures of both were found, although the majority of the novel glycolipids were (acetylated) bola SSs and only minor amounts of alkyl SS were produced. The production of tetra-acetylated bola SS was unexpected, since the CYP52M1 enzyme was thought to be the only enzyme involved in glycolipid production thus far in S. bombicola. To assess the influence on the chain lengths of primary alcohols to the glycolipid production, different substrates were fed to the Δcyp52M1Δfao1 strain. The parental strain Δcyp52M1 was assessed in parallel. Medium and long-chain alcohols were selected between a chain length of 12 and 18, similarly as reported by Davila et al. (1994) for alkanes. Similarly as for the experiments described above, the hydrophobic substrate was added after 48 h of cultivation.

`CCCCCCCCCCCCO` [lauryl alcohol] was tested, and the “glucose consumption after addition of the alcohol” value (addition 48 h after inoculation) was “stopped”, the “CFUs (log (CFU/mL))” value (after addition of the alcohol, 1.8 (w/v) % added after 48 h of cultivation, in contrast to all other fed substrates (FIG. 8A)) was “significant drop” and the “glucose consumption rate after it initiated again” value (only Δcyp52M1Δfao1 strain, 100 h after substrate addition, until all glucose was depleted) was 0.33 g/L·h.

For `CCCCCCCCCCCCCCCCCCO` [stearyl alcohol], the glucose consumption rate was 0.38 g/L·h.

For `CCCCCCCC/C=C\CCCCCCCCO` [oleyl alcohol], the glucose consumption rate was 0.48 g/L·h.

`CCCCCCCCCCCCCCO` [myristyl alcohol] gave a glucose consumption rate of 0.48 g/L·h.

Work on `CCCCCCCCCCCCCCCCO` [cetyl alcohol] yielded a glucose consumption rate of 0.38 g/L·h.
